# Reference: patent US20110195898A1, “TREATMENT OF ALZHEIMER'S DISEASE AND MILD COGNITIVE IMPAIRMENT USING GNRH-I ANALOGS AND ONE OR MORE OF ACETYLCHOLINESTERASE INHIBITORS AND NMDA RECEPTOR ANTAGONISTS” (Voyager Pharmaceutical Corporation, priority 2004, published 2011)
# Counter-ions that a name gives are not always drawn.
# Key:
# [1] = tested on: mild-to-moderate Alzheimer's disease patients; conditions: cited from earlier work
# testosterone suppression = conditions: Fowler et al. 2000; cited from earlier work
# [2] = tested on: women diagnosed with mild-to-moderate Alzheimer's Disease; test: ADAS-Cog test, 48-week double-blind placebo-controlled clinical trial; format: in vivo, human
# Procedure: During 2004-2005, a 48-week, double-blind placebo-controlled dose ranging study was conducted in 108 women diagnosed with mild-to-moderate Alzheimer's Disease. The study inclusion criteria included a requirement that each patient either (a) is taking a cholinesterase inhibitor, began taking it at least 90 days prior to the trial and is likely to continue taking it at the same dosage level throughout the trial; or (b) has never taken a cholinesterase inhibitor or has stopped taking at least 90 days prior to the trial and is likely to remain off cholinesterase inhibitors throughout the trial. The patients in the subgroup taking cholinesterase inhibitors were in turn divided into two groups for analysis purposes:
# Group 1 patients were administered an injectable 22.5 mg formulation of leuprolide acetate in combination with a stable dose of acetylcholinesterase inhibitors (AChEI). At the completion of the study, Group 1 included 24 subjects. Group 2 patients were administered a placebo injection (saline) in combination with a stable dose of AChEI. […]
# During the Phase II study, the administrations of leuprolide acetate and placebo occurred at weeks 0, 12, 24, 36, and 48 of the study, whereas doses of AChE inhibitors were taken as prescribed by a physician (determined as the proper beneficial level) to each specific patient before enrollment. […]
# men with prostate cancer = conditions: daily injections for up to two years, Lupron Depot package insert; cited from earlier work
# [3] = tested on: glioblastoma cell lines (LN229, U87, U118MG); test: Cell growth assay (WST-8, 96 well), glioblastoma cell lines; format: cell-based; conditions: 10^-5 M (12.25 μg/ml) vs 0 M control, WST-8, optical density 450 nm, FIG. 5
# Procedure: (§1) For cell growth assays in a 96 well format, a specific number of cells were plated (about 1000 cells for each line). All cell lines were plated in their respective growth media (supplemented with either 1% regular fetal bovine serum, 1% charcoal/dextran-stripped fetal bovine serum or 0.25% Albumax™ (Invitrogen Corp., Grand Island N.Y.)) and allowed to settle for 24 hours. Leuprolide treatments were commenced […]. A 10 mM (12.25 mg/ml) solution of leuprolide acetate salt in phosphate buffered saline was prepared and diluted appropriately to obtain the desired final concentrations. Treatment concentrations were 0 M (control) and 10^−5 M (shown as 1.00E-5, 12.25 μg/ml). The number of cells in each group was measured by incubating cells with WST-8 (2-(2-methoxy-4-nitrophenyl)-3-(4-nitrophenyl)-5-(2,4-disulfophenyl)-2H-tetrazolium, monosodium salt) which produces a water soluble formazan dye that was detected by measuring optical density (at 450 nm) using a μQuant™ Universal Microplate Spectrophotometer (Bio-Tek® Instruments, Inc., Winooski, Vt.).
# [4] = tested on: neuroblastoma cell lines (DAOY, SKNMC, CCF-SttG1); test: Cell growth assay (WST-8, 96 well), neuroblastoma cell lines; format: cell-based; conditions: 10^-5 M (12.25 μg/ml) vs 0 M control, WST-8, optical density 450 nm, FIG. 5
# Procedure: as §1
# [5] = in vivo; cited from earlier work
structure (smiles),measurement,setting,value
NCCCS(=O)(=O)O [tramiprosate],"overall 18 month decline on ADAS-cog, mild patients","[1]; ongoing trial, overall decline, mild patients",5.5 points
same,"overall 18 month decline on ADAS-cog, moderate patients","[1]; ongoing trial, overall decline, moderate patients",6.3 points
"CCNC(=O)[C@@H]1CCCN1C(=O)[C@H](CCCNC(=N)N)NC(=O)[C@H](CC(C)C)NC(=O)[C@@H](CC(C)C)NC(=O)[C@H](Cc1ccc(O)cc1)NC(=O)[C@H](CO)NC(=O)[C@H](Cc1c[nH]c2ccccc12)NC(=O)[C@H](Cc1c[nH]cn1)NC(=O)[C@@H]1CCC(=O)N1 [leuprolide acetate, 5-oxo-L-prolyl-L-histidyl-L-tryptophyl-L-seryl-L-tyrosyl-D-leucyl-L-leucyl-L-arginyl-N-ethyl-L-prolinamide acetate (salt)]",serum concentration considered adequate for testosterone suppression,testosterone suppression,less than 1 ng/ml
same,cognitive decline as percent of expected no-treatment decline,[2]; 100% decline = 5.6 ADAS-cog points in a year (literature placebo),84%
same,decline on ADAS-cog (mean change from baseline),"[2]; females, over 48 weeks, stable dose of AChEI, leuprolide acetate (Lupron Depot) 22.5 mg at 12-week intervals where given",4.68 points
same,adverse effects of 20 mg per day versus 1 mg per day,men with prostate cancer,did not result in any adverse effects different from what was seen with the 1 mg dose
same,cell growth of glioblastoma cell lines,[3],inhibits cell growth
same,cell growth of glioblastoma cell lines,[3]; listed as Leuprolide,very effective at slowing the growth
same,cell growth of neuroblastoma cell lines,[4],inhibits cell growth
same,cell growth of neuroblastoma cell lines,[4]; listed as Leuprolide,very effective at slowing the growth
"COc1cc2c(cc1OC)C(=O)C(CC1CCN(Cc3ccccc3)CC1)C2 (stereo not drawn) [donepezil, Donepezil]",decline on ADAS-cog after 52 weeks of treatment,"[1]; Wilcock et al., one year trial comparing two AChEIs",3.43±0.8 points
CC12CC3CC(C)(C1)CC(N)(C3)C2 [Memantine],dose excreted in the urine unchanged,[5],up to 82%
